According to US5459256A, “Lipophilic, aminohydrolase-activated prodrugs” (priority 1991, dated 1995):
Entries after “also recorded” stand apart in the source; their conditions may differ.

Experiments:
[1] = test system: human immunodeficiency virus (HIV); settings: background statement; cited from earlier work
[2] = in vivo; cited from earlier work
physchem = settings: octanol/ph 7.0 buffer
Procedure: Measurement of Octanol-Water Partition Coefficients.
n-Octanol-water partition coefficients (P) were determined by a microscale shake-flask procedure, (Ford, H. et al Abstracts of Papers, 200th National Meeting of the American Chemical Society, Washington, D.C.; American Chemical Society: Washington, D.C., 1990; CARB 13) which was modification of an earlier method (Nahum, A. & Horvath, C. J. Chromatogr. 1980, 192, 315). A 20 μL aliquot of a 0.5 mg/mL DMSO solution of the dideoxynucleoside was dissolved in 1.0 mL of octanol-saturated, pH 7.0, 0.01M potassium phosphate buffer. This was mixed thoroughly with 1.0 ml of buffer-saturated n-octanol in a 2-mL Mixxor apparatus at 24°-26° C. and then allowed to stand for 15 min. The phases were separated, centrifuged at 600×g for 5 min, and the relative concentration of sample in each phase determined by HPLC analysis of a 50 μl aliquot. The partition coefficient was calculated by dividing the absolute area of the appropriate integrated peak from the octanol phase by that of the buffer phase (Table I).
Octanol/pH 7.0 buffer partition coefficients were determined using a newly developed microscale method. […] The addition of a methyl group normally increases the log P value of a compound by about 0.5.

[3] = target: T1, adenosine deaminase (adenosine aminohydrolase, EC 3.5.4.4) (Bos taurus, UniProt P56658); assay: Enzymatic deamination by adenosine deaminase (HPLC); settings: for hydrolysis by ADA, times slower than ddA: vs ddA; for half-life at 50 µM: bovine, adenosine deaminase
T1 sequence (P56658 1-363): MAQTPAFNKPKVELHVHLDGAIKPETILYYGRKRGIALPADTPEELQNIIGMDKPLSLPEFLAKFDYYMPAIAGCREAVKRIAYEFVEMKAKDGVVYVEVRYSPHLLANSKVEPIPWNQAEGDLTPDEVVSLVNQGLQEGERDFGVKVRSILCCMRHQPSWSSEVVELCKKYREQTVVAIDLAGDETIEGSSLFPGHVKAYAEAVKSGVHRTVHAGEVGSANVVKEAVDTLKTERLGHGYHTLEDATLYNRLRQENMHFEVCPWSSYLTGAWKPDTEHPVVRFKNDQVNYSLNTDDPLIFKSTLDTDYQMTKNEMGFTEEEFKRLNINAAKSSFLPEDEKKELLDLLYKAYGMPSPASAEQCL
Procedure: FIG. 1. Deamination of dideoxyadenosine analogues by adenosine deaminase. Hydrolysis kinetics and 2'-F-dd-ara-I formation during the incubation of 50 μM N^6 -CH3 -2'-F-dd-ara-A (1f) with 0.7 units/mL of adenosine deaminase at 37° C. A unit of adenosine deaminase is the amount of enzyme which hydrolyzes a standard substrate (e.g., adenosine) at the rate of 1.0 μmole/min at 25° C. and pH 7.5. […] Insert: Adenosine deaminase hydrolysis kinetics for 50 μM ddA and 2'-F-dd-ara-A. The hydrolysis curve for ddA has been extrapolated from kinetics obtained with 0.07 units/mL of adenosine deaminase under identical conditions.
A 50 μl aliquot of a 10 mg/ml suspension of adenosine deaminase (adenosine aminohydrolase, EC 3.5.4.4) from calf intestinal mucosa was centrifuged at 600×g for 3 min. The residue remaining after removal of the (NH4)2 SO4 supernatant was dissolved in 0.5 ml pH 7.4 tris(hydroxymethyl)-aminomethane (Tris) buffer to give an enzyme solution of 1 mg/ml (274 units/ml). […] A pH 7.4 buffer was prepared by adjusting 0.01M Tris to pH 7.4 with 0.5N HCl, The 1.0 HCl , HPLC-grade acetonitrile, monobasic potassium phosphate, sodium hydroxide and ultrapure Tris were all commercially available and were used without further purification.
Enzymatic Deamination of Adenosine Analogues. […] A 50 μL aliquot of substrate solution was diluted with 0.95 ml 0.01M Tris buffer in a 1.5-mL Eppendorf tube and equilibrated at 37° C. in a Dubnoff metabolic shaking incubator. Reaction was initiated by addition of 2.5 μL of adenosine deaminase solution (0.7 unit). At specified time intervals, a 50 μL aliquot of the reaction mixture was withdrawn and quenched by mixing with 0.45 mL cold 2 μM 2'-deoxycoformycin. This diluted sample was ultrafiltered to remove enzyme in a Centrifree Micropartition unit by centrifugation at 600×g at 4° C. in a high speed refrigerated centrifuge. The decrease in substrate concentration was monitored by HPLC analysis of the resultant ultrafiltrate (see below). The ability of 2'-deoxycoformycin to inhibit deamination under the above conditions was evaluated by adding 2 μL of 1.0 mM inhibitor to diluted substrate solutions at the time of equilibration. Reaction, sampling and analysis were carried out as above. […] Initial hydrolysis rates for each substrate concentration were measured through linear least-squares curve fitting of the concentration versus time data for reaction of the first 10% of substrate. KM and vmax values for each substrate were then determined from a graphical lineweaver-Burke plot of these initial rates (FIG. 1).
HPLC Analysis of Dideoxypurine Nucleosides.
Concentrations of dideoxynucleosides were measured by the HPLC analysis of 100 μL aliquots of ultrafiltered samples. A 4.6×250 mm 5-μm Ultrasphere-ODS column, protected by a Waters guard column packed with 37-50 μm Vydac 201SC, was eluted with 10-20% CH3 CN in 0.01M pH 7.0 phosphate buffer at a flow rate of 1.0 mL/min. Dideoxynucleosides and deamination products were detected at the appropriate wavelength of maximum absorption with a Gilson 116 variable wavelength detector. Peak identity was determined from coincidence of retention times with standards and by comparison of on-the-fly UV spectra obtained with a Perkin-Elmer LC-235 diode array detector. Peak areas and peak heights were measured simultaneously on a Spectra-Physics SP4200 computing integrator.

[4] = Toxicity on ATH8 target cells (% toxicity, dye exclusion); format: cell-based; settings: human, ath8 cells, % Toxicity
Procedure: (§1) HIV Cytopathic Effect Inhibition Assay.
(§2) The HIV cytopathic effect inhibition assay was performed as previously described. […] On day 8 in culture, the viable cells were counted by using the dye exclusion method. All compounds, including inactives, were evaluated a minimum of two times in separate experiments. Data reported in Table II are from representative tests. The % protection against the virus was determined by the following formula: 100 times [(the number of viable cells exposed to HIV-1 and cultured in the presence of the compound minus the number of viable cells exposed to HIV-1 and cultured in the absence of compound) divided by (the number of viable cells cultured alone minus the number of viable cells exposed to HIV-1 and cultured in the absence of the compound)]. The % toxicity of a compound on the target cells was determined by the following formula: 100 times [1 minus (the number of total viable cells cultured in the presence of the compound divided by the number of total viable cells cultured alone)]. Calculated percentages equal to or less than zero are expressed as 0%.

CD4^+ ATH8 cells = assay: as above; format: cell-based; settings: for % Toxicity: human
Procedure: as §1, §2

[5] = test system: HIV-1/IIIB (CD4^+ ATH8 cells); assay: HIV cytopathic effect inhibition assay in ATH8 cells (% protection); format: cell-based; settings: ATH8 cells; for anti-HIV activity in the presence of dCF (in words): dCF added
Procedure: as §1
The HIV cytopathic effect inhibition assay was performed as previously described. (Mitsuya, H. & Broder, S. Proc. Nat. Acad. Sci. USA 1986, 83, 1911) Briefly, 200,000 target CD4^+ ATH8 cells were exposed to cell-free HIV-1/IIIB at a dose of 43 (or 1087 for compound 1g) TCID50 (50% tissue culture infectious dose) for 1 h, resuspended in 2 ml of fresh culture media containing interleukin 2, and cultured at 37° C. with or without test compounds in 5% CO2 -containing humidified air. On day 8 in culture, the viable cells were counted by using the dye exclusion method. All compounds, including inactives, were evaluated a minimum of two times in separate experiments. Data reported in Table II are from representative tests. The % protection against the virus was determined by the following formula: 100 times [(the number of viable cells exposed to HIV-1 and cultured in the presence of the compound minus the number of viable cells exposed to HIV-1 and cultured in the absence of compound) divided by (the number of viable cells cultured alone minus the number of viable cells exposed to HIV-1 and cultured in the absence of the compound)]. The % toxicity of a compound on the target cells was determined by the following formula: 100 times [1 minus (the number of total viable cells cultured in the presence of the compound divided by the number of total viable cells cultured alone)]. Calculated percentages equal to or less than zero are expressed as 0%.
^a ATH8 cells were exposed to HIV1/IIIB per cell for 1 hr and
cultured in the presence of various concentrations of each compound. On
day 8, the total viable cells were counted. Orders of numbers in the
column for concentrations correspond to the orders of numbers in other

ADA = settings: vs ddA, determined previously, slightly different conditions; cited from earlier work

In the case of Cc1ccc(C(=O)Nc2ccc(S(=O)(=O)O)c3cc(S(=O)(=O)O)cc(S(=O)(=O)O)c23)cc1NC(=O)c1cccc(NC(=O)Nc2cccc(C(=O)Nc3cc(C(=O)Nc4ccc(S(=O)(=O)O)c5cc(S(=O)(=O)O)cc(S(=O)(=O)O)c45)ccc3C)c2)c1 [suramin], the “HIV replication in presence of compound (in words)” value [1] is listed as “HIV replication is considerably slower”.
For Nc1ccn([C@H]2CC[C@@H](CO)O2)c(=O)n1 [ddC, dideoxycytidine, reference compound], the “CNS entry (in words)” value [2] is given as “failure of ddC to achieve significant CNS levels” and the logD (physchem; pH 7, Log P) is given as -1.33 ± 0.01.
With OC[C@@H]1C[C@H](F)[C@H](n2cnc3c(Cl)ncnc32)O1 [Compound 1i, 6-Chloro-9-(2',3'-dideoxy-2-fluoro-β-D-arabinofuranosyl)purine] the “Measured Relative Rate” value ([3]; 50 μM substrate, pH 7.4 and 37° C., ddA = 100) was 0.06, the vmax ([3]; pH 7.4 and 37° C.) was 2.6 × 10^-2 μmol/min/U and the “hydrolysis by ADA, times slower than ddA” value ([3]; 50 μM substrate) was “ca. 1700 times slower”. The cytotoxicity at 192 h, 50 µM [4] was 46%, the cytotoxicity at 192 h, 100 µM [4] was 52% and the “% Toxicity” value (CD4^+ ATH8 cells; 11520 min) was 14%. The “% Toxicity” value (CD4^+ ATH8 cells; ath8 cells, 192 h, 50 µM) was 56%, the “% Toxicity” value (CD4^+ ATH8 cells; ath8 cells, 192 h, 100 µM) was 72% and the “protection to HIV-infected ATH8 cells” value ([5]; concentration not given) was “ca. 50%”. The “anti-HIV activity in the presence of dCF (in words)” value [5] was “protection was either abolished or greatly decreased; also recorded: can have activity abolished”, the “anti-HIV activity (in words)” value ([5]; no additive) was “reproducible, albeit unspectacular, activity; also recorded: only moderate anti-HIV activity” and the logD (physchem; pH 7) was 0.32 ± 0.02.
For antimoniotungstate, the “HIV replication in presence of compound (in words)” value [1] is given as “HIV replication is considerably slower”.
For Nc1ncnc2c1ncn2[C@@H]1O[C@H](CO)C[C@@H]1F [Compound 1a, 2', 3'-dideoxy-2'-fluoroarabinosyladenine, reference compound], the “hydrolysis by ADA, times slower than ddA” value (ADA) is given as “ca. 10 times slower”, the half-life at 50 µM [3] is given as 1.33 min and the half-life at 50 µM ([3]; t1/2 of hydrolysis by adenosine deaminase) is given as 1.33 min. For the same compound, the vmax ([3]; pH 7.4 and 37° C.) was 2.3 × 10^-1 μmol/min/U, the “hydrolysis by ADA, times slower than ddA” value ([3]; 50 μM substrate) was 17 times slower and the “toxicity in the presence of dCF (in words)” value (CD4^+ ATH8 cells) was “appeared to be potentiated”. For the same compound, the “% Toxicity” value (CD4^+ ATH8 cells; 11520 min) was 11%, the “anti-HIV activity with supplementary ADA (in words)” value ([5]; ADA (0.7 U/mL) added) was “did not change its activity” and the “anti-HIV activity in the presence of dCF (in words)” value [5] was “no important changes in the protection”.
For O=c1[nH]cnc2c1ncn2[C@@H]1O[C@H](CO)C[C@@H]1F [Compound 1b, 2', 3'-dideoxy-2'-fluoroarabinosylhypoxanthine, reference compound], the “deamination product / product formation (in words)” value ([3]; 0.7 U/mL ADA, 37° C.) is given as “the rate of formation of 1b corresponded to the rate of disappearance of 1f”, the “in vitro activity against HIV (in words)” value [1] is given as “known active inosine analogue” and the logD (physchem; pH 7) is given as -1.21 ± 0.02.
